Test results from US8952024B2, “Herbicidal pyrimidone derivatives” (E I du Pont de Nemours and Company, priority 2009, dated 2015).

Key:
Type in all cases: in vivo
[1] = test system: umbrella sedge (Cyperus difformis); test: Test B flooded paddy test; settings: for Plant response rating, Sedge, Umbrella: Flood (flooded paddy test), 13 to 15 days
Method in brief: (§1)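 Plants were grown to the 2-leaf stage, then pots were flooded to 3 cm above the soil and compounds were applied directly into the paddy water. That depth was held throughout. After 13 to 15 days in a greenhouse, injury was visually rated against controls on a 0–100 scale.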

[2] = test system: ducksalad (Heteranthera limosa); test: Test B flooded paddy test; settings: for Plant response rating, Ducksalad: Flood (flooded paddy test), 13 to 15 days
Method in brief: as §1

[3] = test system: barnyardgrass (Echinochloa crus-galli); test: Test B flooded paddy test; settings: for Plant response rating, Barnyardgrass: Flood (flooded paddy test), 13 to 15 days
Method in brief: as §1

rice (Oryza sativa) = test: Test B flooded paddy test; settings: for Plant response rating, Rice: Flood (flooded paddy test), 13 to 15 days
Method in brief: as §1

[4] = test system: wheat (Triticum aestivum); test: Test A pre-/postemergence plant response
Method in brief: (§2)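 Visually rated 0–100 injury (100 = complete control) versus untreated plants, ~10 days in greenhouse. Application pre- (soil spray, loam/sand) and postemergence (2–10 cm, 1–2 leaf stage), same timepoint.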

[5] = test system: morningglory (Ipomoea spp.); test: Test A pre-/postemergence plant response
Method in brief: as §2

[6] = test system: velvetleaf (Abutilon theophrasti); test: Test A pre-/postemergence plant response
Method in brief: as §2

[7] = test system: barnyardgrass (Echinochloa crus-galli); test: Test A pre-/postemergence plant response
Method in brief: as §2

corn (Zea mays) = test: Test A pre-/postemergence plant response
Method in brief: as §2

[8] = test system: large crabgrass (Digitaria sanguinalis); test: Test A pre-/postemergence plant response
Method in brief: as §2

[9] = test system: giant foxtail (Setaria faberii); test: Test A pre-/postemergence plant response
Method in brief: as §2

[10] = test system: pigweed (Amaranthus retroflexus); test: Test A pre-/postemergence plant response
Method in brief: as §2

[11] = 250 g ai/ha, flooded paddy test, visual rating on 0 to 100 scale (0 no effect, 100 complete control) after 13 to 15 days
[12] = 31 g ai/ha, scale of 0 to 100 where 0 is no effect and 100 is complete control
[13] = 62 g ai/ha, scale 0 to 100, 0 is no effect, 100 is complete control
[14] = 125 g ai/ha, scale 0 to 100, 0 is no effect, 100 is complete control
[15] = Postemergence, 125 g ai/ha, visual injury, 0 to 100 scale (0 no effect, 100 complete control), approx. ten days
[16] = Postemergence, 500 g ai/ha, 0 to 100 scale, 0 = no effect, 100 = complete control, approx. ten days
[17] = Preemergence, 125 g ai/ha, 0 to 100 scale, 0 = no effect, 100 = complete control
[18] = Preemergence, 500 g ai/ha, visual injury, 0 to 100 scale (0 no effect, 100 complete control), approx. ten days
[19] = Flood, 31 g ai/ha, scale 0 to 100 (0 no effect, 100 complete control)
[20] = Postemergence, 125 g ai/ha, 0 to 100 scale where 0 is no effect and 100 is complete control
[21] = Postemergence, 500 g ai/ha, visual injury, 0 to 100 scale (0 no effect, 100 complete control), approx. ten days
[22] = Preemergence, 500 g ai/ha, 0 to 100 scale, 0 = no effect, 100 = complete control

Compound: O=C1CCCC(O)=C1C(=O)c1cnc(-c2ccccc2)n(-c2cccc(F)c2)c1=O [Compound 22]
- Plant response rating, Flood, Sedge, Umbrella [1, 11]: 65
- Plant response rating, Sedge, Umbrella [1, 12]: 0
- Plant response rating, Sedge, Umbrella [1, 13]: 30
- Plant response rating, Sedge, Umbrella [1, 14]: 40
- Plant response rating, Flood, Ducksalad [2, 11]: 60
- Plant response rating, Ducksalad [2, 12]: 0
- Plant response rating, Ducksalad [2, 13]: 20
- Plant response rating, Ducksalad [2, 14]: 30
- Plant response rating, Flood, Barnyardgrass [3, 11]: 0
- Plant response rating, Barnyardgrass [3, 12]: 0
- Plant response rating, Barnyardgrass [3, 13]: 0
- Plant response rating, Barnyardgrass [3, 14]: 0
- Plant response rating, Flood, Rice (rice (Oryza sativa); [11]): 0
- Plant response rating, Rice (rice (Oryza sativa); [12]): 0
- Plant response rating, Rice (rice (Oryza sativa); [13]): 0
- Plant response rating, Rice (rice (Oryza sativa); [14]): 0
- Wheat plant response rating [4, 15]: 0
- Plant response rating, Wheat [4, 16]: 0
- Plant response rating, Wheat [4, 17]: 0
- Plant response rating, Wheat [4, 18]: 0
- Morningglory plant response rating [5, 15]: 30
- Plant response rating, Morningglory [5, 16]: 100
- Plant response rating, Morningglory [5, 17]: 20
- Plant response rating, Morningglory [5, 18]: 70
- Velvetleaf plant response rating [6, 15]: 100
- Plant response rating, Velvetleaf [6, 16]: 100
- Plant response rating, Velvetleaf [6, 17]: 30
- Plant response rating, Velvetleaf [6, 18]: 100
- Barnyardgrass plant response rating [7, 15]: 10
- Plant response rating, Barnyardgrass [7, 16]: 70
- Plant response rating, Barnyardgrass [7, 17]: 10
- Plant response rating, Barnyardgrass [7, 18]: 100
- Corn plant response rating (corn (Zea mays); [15]): 0
- Plant response rating, Corn (corn (Zea mays); [16]): 40
- Plant response rating, Corn (corn (Zea mays); [17]): 0
- Plant response rating, Corn (corn (Zea mays); [18]): 0
- Crabgrass, Large plant response rating [8, 15]: 40
- Plant response rating, Crabgrass, Large [8, 16]: 80
- Plant response rating, Crabgrass, Large [8, 17]: 40
- Plant response rating, Crabgrass, Large [8, 18]: 90
- Foxtail, Giant plant response rating [9, 15]: 30
- Plant response rating, Foxtail, Giant [9, 16]: 80
- Plant response rating, Foxtail, Giant [9, 17]: 20
- Plant response rating, Foxtail, Giant [9, 18]: 80
- Pigweed plant response rating [10, 15]: 80
- Plant response rating, Pigweed [10, 16]: 100
- Plant response rating, Pigweed [10, 17]: 70
- Plant response rating, Pigweed [10, 18]: 90

Compound: CCc1ccc(-n2c(-c3cccc(Cl)c3)ncc(C(=O)C3=C(O)CCCC3=O)c2=O)cc1 [Compound 174]
- Plant response rating, Sedge, Umbrella [1, 14]: 95
- Sedge, Umbrella plant response rating [1, 19]: 85
- Plant response rating, Ducksalad [2, 14]: 95
- Ducksalad plant response rating [2, 19]: 80
- Plant response rating, Barnyardgrass [3, 14]: 0
- Barnyardgrass plant response rating [3, 19]: 0
- Plant response rating, Rice (rice (Oryza sativa); [14]): 0
- Rice plant response rating (rice (Oryza sativa); [19]): 0
- Plant response rating, Wheat [4, 20]: 0
- Wheat plant response rating [4, 21]: 0
- Plant response rating, Wheat [4, 17]: 0
- Plant response rating, Wheat [4, 22]: 0
- Plant response rating, Morningglory [5, 20]: 30
- Morningglory plant response rating [5, 21]: 60
- Plant response rating, Morningglory [5, 17]: 0
- Plant response rating, Morningglory [5, 22]: 0
- Plant response rating, Velvetleaf [6, 20]: 100
- Velvetleaf plant response rating [6, 21]: 100
- Plant response rating, Velvetleaf [6, 17]: 20
- Plant response rating, Velvetleaf [6, 22]: 70
- Plant response rating, Barnyardgrass [7, 20]: 90
- Barnyardgrass plant response rating [7, 21]: 100
- Plant response rating, Barnyardgrass [7, 17]: 0
- Plant response rating, Barnyardgrass [7, 22]: 40
- Plant response rating, Corn (corn (Zea mays); [20]): 10
- Corn plant response rating (corn (Zea mays); [21]): 20
- Plant response rating, Corn (corn (Zea mays); [17]): 10
- Plant response rating, Corn (corn (Zea mays); [22]): 20
- Plant response rating, Crabgrass, Large [8, 20]: 70
- Crabgrass, Large plant response rating [8, 21]: 90
- Plant response rating, Crabgrass, Large [8, 17]: 20
- Plant response rating, Crabgrass, Large [8, 22]: 60
- Plant response rating, Foxtail, Giant [9, 20]: 20
- Foxtail, Giant plant response rating [9, 21]: 60
- Plant response rating, Foxtail, Giant [9, 17]: 0
- Plant response rating, Foxtail, Giant [9, 22]: 40
- Plant response rating, Pigweed [10, 20]: 100
- Pigweed plant response rating [10, 21]: 100
- Plant response rating, Pigweed [10, 17]: 30
- Plant response rating, Pigweed [10, 22]: 90
